Reference: patent US4017622A, “Piperazine derivatives” (Dainippon Pharmaceutical Co., Ltd., priority 1972, dated 1977)

Key:
Acute toxicity in mice = settings: mouse, in vivo
Method: (§1) In the Tables II and III, the ED50 and LD50 values were calculated in accordance with the Bcherns-Kaerber method [Arch. Exp. Path, Pharm., 162, 480 (1931)].
3) Acute toxicity in mice
Experimental conditions:
Mice: male mice (ddY-S) weighing 20 g approximately
Drug: alkaline solution (pH 8 - 9) for intravenous
administration and suspension in 0.2%
carboxymethyl cellulose for oral administration.
iv: intravenous administration.
ip: oral administration.

[1] = tested on: Staphylococcus aureus Terajima; experiment: In vitro antibacterial activity (MIC, serial dilution), Staphylococcus aureus; settings: nutrient broth, pH 7.0; 37° C for 48 hours
Method: (§6) The minimum inhibitory concentration (MIC) was
(§7) determined by the well known serial dilution method.
(§8) Medium: nutrient broth, pH 7.0 (5 ml/tube)
(§9) Inoculum: 1 drop of 1 : 10^5 dilution of an
overnight broth culture per tube

Escherichia coli K-12 = experiment: In vitro antibacterial activity (MIC, serial dilution), Escherichia coli; settings: nutrient broth, pH 7.0; 37° C for 48 hours
Method: as §6, §7, §8, §9
overnight broth culture per tube

[2] = tested on: Pseudomonas aeruginosa Tsuchijima; experiment: In vitro antibacterial activity (MIC, serial dilution), Pseudomonas aeruginosa; settings: nutrient broth, pH 7.0; 37° C for 48 hours
Method: as §6, §7, §8, §9
overnight broth culture per tube

[3] = tested on: Pseudomonas aeruginosa No. 12; experiment: In vivo efficacy against systemic infection with Pseudomonas aeruginosa in mice; settings: NO.12, 168 h, male ddY-S mice, ip, twice, about 5 minutes and 6 hours after infection, observation 7 days
Method: as §1
(§2) 2) In vivo efficacy against systemic infection with
(§3) Pseudomonas aeruginosa and Salmonella typhimurium
*Experimental conditions:
Organism: Pseudomonas aeruginosa No. 12
Mice: male mice (ddY-S) weighing 20 g approximately.
intraperitoneal infection with 50 to 100
LD50 (about 5 × 10^3 cells/mouse) of a
bacterial suspension in 4% gastric mucin.
twice, about 5 minutes and 6 hours after
(§4) Drug: an alkaline solution (pH 8 - 9) for intraperitoneal
(§5) ip: intraperitoneal administration.

[4] = tested on: Salmonella typhimurium S-9; experiment: In vivo efficacy against systemic infection with Salmonella typhimurium in mice; settings: Salmonella enterica, 336 h, male ddY-S mice, twice a day for 4 days, observation 14 days
Method: as §1, §2, §3
**Experimental conditions:
Organism: Salmonella typhimurium S-9
Ice: male mice (ddY-S) weighing 20 g approximately.
Intraperitoneal infection with 50 to 100
LD50 (about 10^5 cells/mouse) of a bacterial
suspension in a nutrient broth.
twice a day for 4 days from the day of
as §4
administration and suspension in 0.2% carboxymethyl
cellulose for oral administration.
as §5
po: oral administration.

Row | Structure (SMILES) | LD50 at 168 h (Acute toxicity in mice; male ddY-S mice, iv, observation 7 days) | LD50 at 168 h (Acute toxicity in mice; male ddY-S mice, po, observation 7 days) | minimum inhibitory concentration (MIC), Staphylococcus aureus Terajima [1] | minimum inhibitory concentration (MIC), Escherichia coli K-12 (Escherichia coli K-12) | minimum inhibitory concentration (MIC), Pseudomonas aeruginosa Tsuchijima [2] | ED50 [3] | ED50 ([4]; ip) | ED50 ([4]; po) | LD50 at 168 h (Acute toxicity in mice; iv) | LD50 at 168 h (Acute toxicity in mice; po)
1 | CCn1cc(C(=O)O)c(=O)c2cnc(N3CCCC3)nc21 [PA, 5,8-dihydro-8-ethyl-2-pyrrolidino-5-oxopyrido [2,3-d]pyrimidine-6-carboxylic acid, reference compound] | 268 mg/kg | > 4000 mg/kg | 10 | 1 | 100 | > 100 mg/kg |  |  |  | 
2 | CCn1cc(C(=O)O)c(=O)c2cnc(N3CCNCC3)cc21 [compound 1367] |  |  | > 100 | 3 | 30 | ~12.5 mg/kg | 54.5 mg/kg | 70.7 mg/kg |  | 
3 | C=Cn1cc(C(=O)O)c(=O)c2ccc(N3CCN(CC)CC3)cc21 [compound 1557] |  |  | 30 | 1 | 10 | 19.3 mg/kg | 5.1 mg/kg | 11.5 mg/kg | 354 mg/kg | > 2000 mg/kg
4 | CCn1cc(C(=O)O)c(=O)c2ccc(N3CCN(C)CC3)nc21 [compound 1225] |  |  | 100 | 1 | 30 |  |  |  |  | 
5 | CCn1cc(C(=O)O)c(=O)c2ccc(N3CCNCC3)nc21 [compound 1214] |  |  | 30 | 3 | 10 | 9.2 mg/kg | 18.7 mg/kg | ~43.8 mg/kg | > 500 mg/kg | 
6 | CCn1cc(C(=O)O)c(=O)c2ccc(N3CCN(C)CC3)cc21 [compound 1090] |  |  | 30 | 1 | 30 | 91.4 mg/kg | 9.6 mg/kg | 13.6 mg/kg | > 500 mg/kg | 2000 mg/kg
7 | C=Cn1cc(C(=O)O)c(=O)c2ccc(N3CCN(C)CC3)nc21 [compound 1276] |  |  | > 100 | 1 | 10 |  |  |  |  | 
8 | C=Cn1cc(C(=O)O)c(=O)c2ccc(N3CCNCC3)nc21 [compound 1424] |  |  | 100 | 1 | 10 | 3.9 mg/kg | 19.3 mg/kg | 22.9 mg/kg | 354 mg/kg | > 2000 mg/kg
9 | O=C(O)c1cn(Cc2ccccc2)c2cc(N3CCNCC3)ccc2c1=O [compound 1162] |  |  | 30 | 1 | 10 |  |  |  |  | 
10 | CCn1cc(C(=O)O)c(=O)c2ccc(N(C)C)nc21 [compound 1249] |  |  | 100 | 1 | > 100 | > 100 mg/kg |  |  |  | 
11 | CCn1cc(C(=O)O)c(=O)c2ccc(N3CCNCC3)cc21 [compound 1091] |  |  | 30 | 1 | 10 | 6.3 mg/kg | 15.5 mg/kg | ~109 mg/kg | > 500 mg/kg | 2000 mg/kg
12 | C=Cn1cc(C(=O)O)c(=O)c2ccc(N3CCN(C)CC3)cc21 [compound 1493] |  |  | 100 | 1 | 3 | 17.8 mg/kg | 3.4 mg/kg | 8.8 mg/kg | > 500 mg/kg | > 2000 mg/kg
13 | CN1CCN(c2ccc3c(=O)c(C(=O)O)cn(Cc4ccccc4)c3c2)CC1 [compound 1147] |  |  | > 100 | 1 | 10 |  |  |  |  | 
14 | CCn1cc(C(=O)O)c(=O)c2cnc(N3CCN(C)CC3)cc21 [compound 1317] |  |  | 30 | 3 | 100 | 50 mg/kg | 14.9 mg/kg | 23.9 mg/kg | > 500 mg/kg | 
